Source: patent US20250197658A1, “ANTIOXIDANT STABILIZERS FOR DIRECT FABRICATION OF ORTHODONTIC APPLIANCES” (Align Technology, Inc., priority 2023, published 2025)

Test: Photoinitiator stability: concentrations in recovered resin composition after printing cycles
Assay type: physicochemical
Conditions: for change of concentration in recovered resin composition: with increasing printing cycles

Row | Compound | concentration in recovered resin composition (1 printing cycle) [wt %] | concentration in recovered resin composition (2 printing cycles) [wt %] | concentration in recovered resin composition (4 printing cycles) [wt %] | concentration in recovered resin composition (6 printing cycles) [wt %] | change of concentration in recovered resin composition
1 | Cc1cc(C)c(C(=O)P(=O)(C(=O)c2c(C)cc(C)cc2C)c2ccccc2)c(C)c1 [BAPO, phenylbis(2,4,6-trimethylbenzoyl) phosphine oxide] | 0.98 | 1 | 0.98 | 0.99 | remained constant
2 | Vitamin E | 0.0077 | 0.0063 | 0.0043 | 0.0026 | decreased
